Assay results: PubChem BioAssay (NCI)
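Results reflect a 48-hour exposure of cells in 96-well plates to compound at five concentrations. TGI denotes the concentration required for complete inhibition of growth.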

Legend:
Test in all cases: DTP human tumour cell line panel, 48 h
U251 CNS = test system: U251 CNS
UO-31 renal = test system: UO-31 renal
SF-268 CNS = test system: SF-268 CNS
MDA-MB-231 breast = test system: MDA-MB-231 breast
CCRF-CEM leukemia = test system: CCRF-CEM leukemia
PC-3 prostate = test system: PC-3 prostate
HCC-2998 colon = test system: HCC-2998 colon
HCT-15 colon = test system: HCT-15 colon
HL-60(TB) leukemia = test system: HL-60(TB) leukemia
RXF 393 renal = test system: RXF 393 renal
OVCAR-8 ovarian = test system: OVCAR-8 ovarian
SNB-75 CNS = test system: SNB-75 CNS
OVCAR-4 ovarian = test system: OVCAR-4 ovarian
OVCAR-5 ovarian = test system: OVCAR-5 ovarian
NCI-H522 lung = test system: NCI-H522 lung
MDA-MB-435 = test system: MDA-MB-435
T-47D breast = test system: T-47D breast
KM12 colon = test system: KM12 colon
SK-MEL-5 melanoma = test system: SK-MEL-5 melanoma
NCI/ADR-RES ovarian = test system: NCI/ADR-RES ovarian

## N#CC(c1ccccc1)N(CCc1ccccc1)C(=O)c1ccccc1 (stereo not given)
U251 CNS
  TGI: > 100 µM
UO-31 renal
  TGI: > 100 µM
SF-268 CNS
  TGI: > 86.5 µM
MDA-MB-231 breast
  TGI: > 100 µM
CCRF-CEM leukemia
  TGI: > 100 µM
PC-3 prostate
  TGI: > 100 µM
HCC-2998 colon
  TGI: > 100 µM
HCT-15 colon
  TGI: > 100 µM
HL-60(TB) leukemia
  TGI: > 100 µM
RXF 393 renal
  TGI: > 100 µM
OVCAR-8 ovarian
  TGI: > 100 µM
SNB-75 CNS
  TGI: 57.2 µM
OVCAR-4 ovarian
  TGI: > 100 µM
OVCAR-5 ovarian
  TGI: > 100 µM
NCI-H522 lung
  TGI: > 100 µM
MDA-MB-435
  TGI: > 100 µM
T-47D breast
  TGI: > 100 µM
KM12 colon
  TGI: > 100 µM
SK-MEL-5 melanoma
  TGI: > 100 µM
NCI/ADR-RES ovarian
  TGI: > 100 µM

## CN(C)Cc1cc(N=Nc2ccccc2Cl)ccc1O
U251 CNS
  TGI: 59.3 µM
UO-31 renal
  TGI: 36.5 µM
SF-268 CNS
  TGI: > 100 µM
MDA-MB-231 breast
  TGI: 86.4 µM
CCRF-CEM leukemia
  TGI: 54.2 µM
PC-3 prostate
  TGI: > 100 µM
HCC-2998 colon
  TGI: 26.8 µM
HCT-15 colon
  TGI: 75.5 µM
HL-60(TB) leukemia
  TGI: 29.3 µM
RXF 393 renal
  TGI: 60.8 µM
OVCAR-8 ovarian
  TGI: 25.3 µM
SNB-75 CNS
  TGI: 55.8 µM
OVCAR-4 ovarian
  TGI: > 100 µM
OVCAR-5 ovarian
  TGI: 63.2 µM
NCI-H522 lung
  TGI: 23.5 µM
MDA-MB-435
  TGI: 32.9 µM
T-47D breast
  TGI: 71.5 µM
KM12 colon
  TGI: 75.5 µM
SK-MEL-5 melanoma
  TGI: 24.6 µM
NCI/ADR-RES ovarian
  TGI: 74.7 µM

## N#Cc1c(N)c2c(c(-c3ccccc3)c1-c1ccccc1)C(=O)N(Nc1ccccc1)C2=O
U251 CNS
  TGI: > 100 µM
UO-31 renal
  TGI: 78.3 µM
SF-268 CNS
  TGI: > 100 µM
MDA-MB-231 breast
  TGI: > 100 µM
CCRF-CEM leukemia
  TGI: > 100 µM
PC-3 prostate
  TGI: > 100 µM
HCC-2998 colon
  TGI: > 100 µM
HCT-15 colon
  TGI: > 100 µM
HL-60(TB) leukemia
  TGI: > 100 µM
RXF 393 renal
  TGI: 65.2 µM
OVCAR-8 ovarian
  TGI: > 100 µM
SNB-75 CNS
  TGI: > 100 µM
OVCAR-4 ovarian
  TGI: > 100 µM
OVCAR-5 ovarian
  TGI: > 100 µM
NCI-H522 lung
  TGI: > 100 µM
MDA-MB-435
  TGI: > 100 µM
T-47D breast
  TGI: 71 µM
KM12 colon
  TGI: 56.4 µM
SK-MEL-5 melanoma
  TGI: 78.5 µM
NCI/ADR-RES ovarian
  TGI: > 100 µM

## CC1=C(C(=O)NNC(=O)C(N)=O)CC(C(=O)NNC(=O)C(N)=O)=C(C)N1
U251 CNS
  TGI: > 100 µM
UO-31 renal
  TGI: > 100 µM
SF-268 CNS
  TGI: > 100 µM
MDA-MB-231 breast
  TGI: > 100 µM
CCRF-CEM leukemia
  TGI: > 100 µM
PC-3 prostate
  TGI: > 100 µM
HCC-2998 colon
  TGI: > 100 µM
HCT-15 colon
  TGI: > 100 µM
HL-60(TB) leukemia
  TGI: > 100 µM
RXF 393 renal
  TGI: > 100 µM
OVCAR-8 ovarian
  TGI: > 100 µM
SNB-75 CNS
  TGI: > 100 µM
OVCAR-4 ovarian
  TGI: > 100 µM
OVCAR-5 ovarian
  TGI: > 100 µM
NCI-H522 lung
  TGI: > 100 µM
MDA-MB-435
  TGI: > 100 µM
T-47D breast
  TGI: > 100 µM
KM12 colon
  TGI: > 100 µM
SK-MEL-5 melanoma
  TGI: > 100 µM
NCI/ADR-RES ovarian
  TGI: > 100 µM

## CS(=O)(=O)N1CC(CCl)c2ccc(NCCN)cc21 (stereo not given)
U251 CNS
  TGI: > 100 µM
UO-31 renal
  TGI: > 100 µM
SF-268 CNS
  TGI: > 100 µM
MDA-MB-231 breast
  TGI: > 100 µM
CCRF-CEM leukemia
  TGI: > 100 µM
PC-3 prostate
  TGI: > 100 µM
HCC-2998 colon
  TGI: > 100 µM
HCT-15 colon
  TGI: > 100 µM
HL-60(TB) leukemia
  TGI: > 100 µM
RXF 393 renal
  TGI: > 100 µM
OVCAR-8 ovarian
  TGI: > 100 µM
SNB-75 CNS
  TGI: 40.1 µM
OVCAR-4 ovarian
  TGI: > 100 µM
OVCAR-5 ovarian
  TGI: > 100 µM
NCI-H522 lung
  TGI: > 100 µM
MDA-MB-435
  TGI: > 100 µM
T-47D breast
  TGI: > 100 µM
KM12 colon
  TGI: > 100 µM
SK-MEL-5 melanoma
  TGI: > 100 µM
NCI/ADR-RES ovarian
  TGI: > 100 µM

## CC(C)C(C/C=C1/CC(CO)(COC(=O)C(C)(C)C)OC1=O)C(C)C (stereo not given)
U251 CNS
  TGI: 27.5 µM
UO-31 renal
  TGI: 17.3 µM
SF-268 CNS
  TGI: 23.5 µM
MDA-MB-231 breast
  TGI: 17.1 µM
CCRF-CEM leukemia
  TGI: 36.5 µM
PC-3 prostate
  TGI: 21.1 µM
HCC-2998 colon
  TGI: 15.2 µM
HCT-15 colon
  TGI: 34.6 µM
HL-60(TB) leukemia
  TGI: 16.2 µM
RXF 393 renal
  TGI: 30.5 µM
OVCAR-8 ovarian
  TGI: 36.4 µM
SNB-75 CNS
  TGI: 21.1 µM
OVCAR-4 ovarian
  TGI: 31.5 µM
OVCAR-5 ovarian
  TGI: 24.3 µM
NCI-H522 lung
  TGI: 27.6 µM
MDA-MB-435
  TGI: 21.5 µM
T-47D breast
  TGI: 23.3 µM
KM12 colon
  TGI: 27.3 µM
SK-MEL-5 melanoma
  TGI: 20.7 µM
NCI/ADR-RES ovarian
  TGI: 36.6 µM

## COC(=O)C1=C([C@H]2COC(C)(C)O2)[C@H]2C[C@@H]1[C@@H]1OC(C)(C)O[C@@H]12
U251 CNS
  TGI: > 100 µM
UO-31 renal
  TGI: > 100 µM
SF-268 CNS
  TGI: > 100 µM
MDA-MB-231 breast
  TGI: > 100 µM
CCRF-CEM leukemia
  TGI: > 100 µM
PC-3 prostate
  TGI: > 100 µM
HCC-2998 colon
  TGI: > 100 µM
HCT-15 colon
  TGI: > 100 µM
HL-60(TB) leukemia
  TGI: > 100 µM
RXF 393 renal
  TGI: > 100 µM
OVCAR-8 ovarian
  TGI: > 100 µM
SNB-75 CNS
  TGI: > 100 µM
OVCAR-4 ovarian
  TGI: > 100 µM
OVCAR-5 ovarian
  TGI: > 100 µM
NCI-H522 lung
  TGI: > 100 µM
MDA-MB-435
  TGI: > 100 µM
T-47D breast
  TGI: > 100 µM
KM12 colon
  TGI: > 100 µM
SK-MEL-5 melanoma
  TGI: > 100 µM
NCI/ADR-RES ovarian
  TGI: > 100 µM

## CN(C)/N=C1\C=C2CC[C@H](O[Si](C)(C)C(C)(C)C)[C@@]2(C)CC1
U251 CNS
  TGI: 29.7 µM
UO-31 renal
  TGI: 29.8 µM
SF-268 CNS
  TGI: 39.6 µM
MDA-MB-231 breast
  TGI: 30.3 µM
CCRF-CEM leukemia
  TGI: 44 µM
PC-3 prostate
  TGI: 28.1 µM
HCC-2998 colon
  TGI: 30.6 µM
HCT-15 colon
  TGI: 33 µM
HL-60(TB) leukemia
  TGI: 26.5 µM
RXF 393 renal
  TGI: 28 µM
OVCAR-8 ovarian
  TGI: 33.3 µM
SNB-75 CNS
  TGI: 30.9 µM
OVCAR-4 ovarian
  TGI: 28.6 µM
OVCAR-5 ovarian
  TGI: 32.5 µM
NCI-H522 lung
  TGI: 26.3 µM
MDA-MB-435
  TGI: 32 µM
T-47D breast
  TGI: 29.6 µM
KM12 colon
  TGI: 30.9 µM
SK-MEL-5 melanoma
  TGI: 24.9 µM
NCI/ADR-RES ovarian
  TGI: 34.5 µM
